Article PMC6225228, “Design, Synthesis and Evaluation of N-pyrazinylbenzamides as Potential Antimycobacterial Agents” (Molecules : A Journal of Synthetic Chemistry and Natural …, 2018)
Read-outs that look alike come from different tables or passages of the source.

Assays:
[1] = tested on: Mycobacterium tuberculosis H37Rv CNCTC My 331/88 (ATCC 27294); test: Antimycobacterial microdilution MABA, M. tuberculosis; assay type: cell-based; conditions: for MIC: Mycobacterium tuberculosis, read-out: Mtb H37Rv ATCC 27294 MIC, Middlebrook 7H9 with OADC growth supplement, pH = 6.6, MABA
[2] = tested on: M. kansasii CNCTC My 235/80 (ATCC 12478); test: Antimycobacterial microdilution MABA, M. kansasii; assay type: cell-based, Mycobacterium kansasii; conditions: for MIC: Mycobacterium kansasii, ATCC12478, pH 6.6, read-out: M. kans. ATCC 12478 MIC, Middlebrook 7H9 with OADC, pH 6.6, MABA
[3] = tested on: M. avium ssp. avium CNCTC My 80/72 (ATCC 15769); test: Antimycobacterial microdilution MABA, M. avium; assay type: cell-based, Mycobacterium avium; conditions: for M. avium ATCC 15769 MIC: Middlebrook 7H9 with OADC, pH 6.6, MABA; for MIC: Mycobacterium avium, ATCC15769, pH 6.6, read-out: M. avium ATCC 15769 MIC
[4] = tested on: Mycobacterium smegmatis CCM 4622 (ATCC 607); test: Antimycobacterial microdilution, M. smegmatis; assay type: cell-based; conditions: Mycolicibacterium smegmatis, read-out: M. smeg. ATCC 607 MIC
[5] = tested on: Staphylococcus aureus CCM 4516/08; test: Antibacterial microdilution broth, SA; assay type: cell-based; conditions: Staphylococcus aureus
[6] = tested on: Staphylococcus aureus H 5996/08 methicillin resistant; test: microbe, parasite or virus in culture; assay type: cell-based; conditions: Staphylococcus aureus, MRSA, read-out: MIC MRSA
[7] = tested on: Staphylococcus epidermidis H 6966/08; test: Antibacterial microdilution broth, SE; assay type: cell-based; conditions: Staphylococcus epidermidis, read-out: MIC SE
[8] = tested on: Enterococcus sp. J 14365/08; test: Antibacterial microdilution broth, EF; assay type: cell-based; conditions: Enterococcus, read-out: MIC EF
[9] = tested on: Escherichia coli CCM 4517; test: Antibacterial microdilution broth, EC; assay type: cell-based; conditions: Escherichia coli, read-out: MIC EC
[10] = tested on: Pseudomonas aeruginosa CCM 1961; test: Antibacterial microdilution broth, PA; assay type: cell-based; conditions: Pseudomonas aeruginosa, read-out: MIC PA
[11] = tested on: Candida albicans ATCC 44859; test: Antifungal microdilution broth, CA; assay type: cell-based; conditions: Candida albicans, read-out: MIC CA
Candida tropicalis 156 = test: Antifungal microdilution broth, CT; assay type: cell-based; conditions: read-out: MIC CT
Candida krusei E28 = test: Antifungal microdilution broth, CK; assay type: cell-based; conditions: Pichia kudriavzevii, read-out: MIC CK
Candida glabrata 20/I = test: Antifungal microdilution broth, CG; assay type: cell-based; conditions: Nakaseomyces glabratus, 20/I, read-out: MIC CG
Trichosporon asahii 1188 = test: Antifungal microdilution broth, TA; assay type: cell-based; conditions: read-out: MIC TA
[12] = tested on: Aspergillus fumigatus 231; test: Antifungal microdilution broth, AF; assay type: cell-based; conditions: read-out: MIC AF
[13] = tested on: Lichtheimia corymbifera 272; test: Antifungal microdilution broth, LC; assay type: cell-based; conditions: read-out: MIC LC
[14] = tested on: Trichophyton interdigitale 445; test: Antifungal microdilution broth, TI; assay type: cell-based; conditions: read-out: MIC TI
[15] = CCM4516, 24 h, read-out: MIC SA, 24 h
[16] = CCM4516, 48 h, read-out: MIC SA, 48 h
[17] = Trichosporon asahii, 1188, 24 h
[18] = Trichosporon asahii, 1188, 48 h
[19] = Aspergillus fumigatus, 231, 24 h
[20] = Aspergillus fumigatus, 231, 48 h
[21] = Lichtheimia corymbifera, 272, 24 h
[22] = Lichtheimia corymbifera, 272, 48 h
[23] = Trichophyton interdigitale, 445, 72 h
[24] = Trichophyton interdigitale, 445, 120 h

O=C(Nc1cnccn1)c1ccccc1Cl [Compound 1j]
128.2 to 129.7 °C: melting point
>100 µg/mL: Mtb H37Rv ATCC 27294 MIC ([1]; Middlebrook 7H9 with OADC growth supplement, pH = 6.6, MABA) | M. kans. ATCC 12478 MIC ([2]; Middlebrook 7H9 with OADC, pH 6.6, MABA) | M. avium ATCC 15769 MIC [3]
> 100 µg/mL: MIC [1] | MIC [2] | MIC [3]
250 µM: MIC [5, 15] | MIC [5, 16] | MIC ([10]; CCM1961, 72 h) | MIC ([10]; CCM1961, 120 h)
> 500 µM: MIC ([6]; 24 h) | MIC ([6]; 48 h) | MIC ([8]; SP.J14365/08, 24 h) | MIC ([8]; SP.J14365/08, 48 h) | MIC ([9]; CCM4517, 24 h) | MIC ([9]; CCM4517, 48 h) | MIC ([11]; ATCC44859, 24 h) | MIC ([11]; ATCC44859, 48 h) | MIC (Candida tropicalis 156; Candida tropicalis, 156, 24 h) | MIC (Candida tropicalis 156; Candida tropicalis, 156, 48 h) | MIC (Candida krusei E28; E28, 24 h) | MIC (Candida krusei E28; E28, 48 h) | MIC (Candida glabrata 20/I; 24 h) | MIC (Candida glabrata 20/I; 48 h) | MIC (Trichosporon asahii 1188; [17]) | MIC (Trichosporon asahii 1188; [18]) | MIC [12, 19] | MIC [12, 20] | MIC [13, 21] | MIC [13, 22] | MIC [14, 23] | MIC [14, 24]
250 µg/mL: MIC [4]
500 µM: MIC ([7]; H6966/08, 24 h) | MIC ([7]; H6966/08, 48 h)

O=C(Nc1cnccn1)c1cccc(Cl)c1 [Compound 1k]
> 100 µg/mL: MIC [3]
≥ 500 µg/mL: MIC [4]
>100 µg/mL: M. avium ATCC 15769 MIC [3]
> 125 µM: MIC [5, 15] | MIC [5, 16] | MIC ([6]; 24 h) | MIC ([6]; 48 h) | MIC ([7]; H6966/08, 24 h) | MIC ([7]; H6966/08, 48 h) | MIC ([8]; SP.J14365/08, 24 h) | MIC ([8]; SP.J14365/08, 48 h) | MIC ([9]; CCM4517, 24 h) | MIC ([9]; CCM4517, 48 h) | MIC ([10]; CCM1961, 72 h) | MIC ([10]; CCM1961, 120 h) | MIC ([11]; ATCC44859, 24 h) | MIC ([11]; ATCC44859, 48 h) | MIC (Candida tropicalis 156; Candida tropicalis, 156, 24 h) | MIC (Candida tropicalis 156; Candida tropicalis, 156, 48 h) | MIC (Candida krusei E28; E28, 24 h) | MIC (Candida krusei E28; E28, 48 h) | MIC (Candida glabrata 20/I; 24 h) | MIC (Candida glabrata 20/I; 48 h) | MIC (Trichosporon asahii 1188; [17]) | MIC (Trichosporon asahii 1188; [18]) | MIC [12, 19] | MIC [12, 20] | MIC [13, 21] | MIC [13, 22] | MIC [14, 23] | MIC [14, 24]
50 µg/mL: MIC [1] | MIC [2]
147.2 to 149.4 °C: melting point

COc1ccccc1C(=O)Nc1cnc(Cl)cn1 [Compound 2e]
≥ 500 µg/mL: MIC [4]
141.2 to 142 °C: melting point
> 125 µM: MIC [5, 15] | MIC [5, 16] | MIC ([5]; CCM4516, read-out: MIC against S. aureus, time not stated) | MIC ([6]; 24 h) | MIC ([6]; 48 h) | MIC ([7]; H6966/08, 24 h) | MIC ([7]; H6966/08, 48 h) | MIC ([8]; SP.J14365/08, 24 h) | MIC ([8]; SP.J14365/08, 48 h) | MIC ([9]; CCM4517, 24 h) | MIC ([9]; CCM4517, 48 h) | MIC ([10]; CCM1961, 72 h) | MIC ([10]; CCM1961, 120 h) | MIC ([11]; ATCC44859, 24 h) | MIC ([11]; ATCC44859, 48 h) | MIC (Candida tropicalis 156; Candida tropicalis, 156, 24 h) | MIC (Candida tropicalis 156; Candida tropicalis, 156, 48 h) | MIC (Candida krusei E28; E28, 24 h) | MIC (Candida krusei E28; E28, 48 h) | MIC (Candida glabrata 20/I; 24 h) | MIC (Candida glabrata 20/I; 48 h) | MIC (Trichosporon asahii 1188; [17]) | MIC (Trichosporon asahii 1188; [18]) | MIC [12, 19] | MIC [12, 20] | MIC [13, 21] | MIC [13, 22] | MIC [14, 23] | MIC [14, 24]
> 100 µg/mL: MIC [1] | MIC [2] | MIC [3]
